Laboratory results as given in US20200339548A1, “PYRIMIDINE DERIVATIVES AND THEIR USE FOR THE TREATMENT OF CANCER” (Adorx Therapeutics Limited, priority 2017, published 2020).

Assays:
Adenosine A2a receptor = biological target: T1, Adenosine A2a receptor (Homo sapiens, UniProt P29274); assay: Adenosine receptor TR-FRET binding assay, A2a; details: displacement of 100 nM CA200645, CHO cell membranes
T1 construct: expressed in transfected cells; host or cells: CHO cell membranes
Protocol: (§1) All FRET binding experiments were conducted at room temperature in white 384-well plates, in assay binding buffer containing 1× LabMed (Cisbio, France), 100 μg/mL saponin, 1% DMSO and 0.02% pluronic acid. Binding of the fluorescently labelled Adenosine receptor antagonist XAC (CA200645, FRET acceptor) to terbium-labelled A1, A2a, A2b and A3 adenosine receptors (FRET donors) was detected by time-resolved FRET due to the close proximity of the donor and acceptor in a binding event. To investigate the ability of unlabelled test compounds to bind to Adenosine A1, A2a, A2b and A3 receptors, dose response curves were constructed that determined the ability of a range of concentrations to inhibit the binding of 30 nM CA200645 to the A2b receptor and 100 nM CA200645 to the A1, A2a, and A3 receptor.
(§2) Serial dilution (1:3 dilutions) of test compounds in neat DMSO and transfer of a 400 nL sample of test compound into the assay plate was carried out using the Mosquito (TTP Labtech, UK). The compound samples were incubated for 2 hours at room temperature with a fixed concentration of CA200645 defined for each receptor (see above) and CHO cell membranes containing the human Adenosine A1 (0.5 μg/well), A2a (0.3 μg/well), A2b (1 μg/well) or A3 (1 μg/well) receptor in 40 μL of assay buffer. Total and non-specific binding of CA200645 was determined in the absence and presence of 10 μM XAC, respectively.
(§3) Following 2 hours incubation, the level of CA200645 binding was detected on a Pherastar FSX (BMG Labtech, Germany) using standard TR-FRET settings. The terbium donor was excited with three laser flashes at a wavelength of 337 nm, and donor and acceptor emission was detected at 620 nm and 665 nm wavelengths, respectively. FRET ratios were obtained by multiplying the acceptor/donor ratio value by 10,000. Specific binding was determined by subtracting the non-specific binding FRET ratio from the total binding FRET ratio. Compound IC50 curves were analysed using GraphPad Prism 7.0 (GraphPad, USA) and Ki affinity values were determined from the obtained […] values using the method of Cheng and Prusoff.

Adenosine A2b receptor = biological target: T2, Adenosine A2b receptor (Homo sapiens, UniProt P29275); assay: Adenosine receptor TR-FRET binding assay, A2b; details: Table 9, further testing; displacement of 30 nM CA200645, CHO cell membranes
T2 construct: expressed in transfected cells; host or cells: CHO cell membranes
T2 sequence (P29275 1-332): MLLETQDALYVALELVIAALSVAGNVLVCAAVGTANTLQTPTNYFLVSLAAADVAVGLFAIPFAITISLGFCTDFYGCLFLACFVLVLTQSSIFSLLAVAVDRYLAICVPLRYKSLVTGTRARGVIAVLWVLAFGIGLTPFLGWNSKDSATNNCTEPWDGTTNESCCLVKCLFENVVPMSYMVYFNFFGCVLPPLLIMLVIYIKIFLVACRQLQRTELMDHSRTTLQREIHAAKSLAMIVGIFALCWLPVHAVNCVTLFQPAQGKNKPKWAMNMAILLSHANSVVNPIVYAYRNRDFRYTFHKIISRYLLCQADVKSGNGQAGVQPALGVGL
Protocol: as §1, §2, §3

Adenosine A1 receptor = biological target: T3, Adenosine A1 receptor (Homo sapiens, UniProt P30542); assay: Adenosine receptor TR-FRET binding assay, A1; details: Table 9, further testing; displacement of 100 nM CA200645, CHO cell membranes
T3 construct: expressed in transfected cells; host or cells: CHO cell membranes
T3 sequence (P30542 1-326): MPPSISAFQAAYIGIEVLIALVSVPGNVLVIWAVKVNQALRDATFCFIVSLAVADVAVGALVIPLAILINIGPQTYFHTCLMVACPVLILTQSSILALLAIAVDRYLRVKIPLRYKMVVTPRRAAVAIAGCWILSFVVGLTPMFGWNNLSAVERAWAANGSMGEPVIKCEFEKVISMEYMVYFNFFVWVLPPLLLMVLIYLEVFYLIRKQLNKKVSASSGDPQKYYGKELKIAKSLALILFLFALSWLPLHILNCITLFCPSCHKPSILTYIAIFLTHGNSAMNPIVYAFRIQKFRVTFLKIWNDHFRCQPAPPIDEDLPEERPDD
Protocol: as §1, §2, §3

T1 sequence (P29274 whole entry): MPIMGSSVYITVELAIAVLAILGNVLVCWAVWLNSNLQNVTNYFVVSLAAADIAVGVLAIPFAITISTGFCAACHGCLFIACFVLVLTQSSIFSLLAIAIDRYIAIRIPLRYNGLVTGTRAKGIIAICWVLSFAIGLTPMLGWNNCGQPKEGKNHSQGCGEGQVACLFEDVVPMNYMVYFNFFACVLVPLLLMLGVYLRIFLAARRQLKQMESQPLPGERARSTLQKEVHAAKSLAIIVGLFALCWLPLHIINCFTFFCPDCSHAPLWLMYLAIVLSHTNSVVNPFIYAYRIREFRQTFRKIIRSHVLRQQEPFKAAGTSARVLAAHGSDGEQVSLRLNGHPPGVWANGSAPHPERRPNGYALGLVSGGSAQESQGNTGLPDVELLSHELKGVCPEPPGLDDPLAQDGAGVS

Row | SMILES | Ki (Adenosine A2a receptor; Table 8, Cheng and Prusoff) | Ki (Adenosine A2a receptor; Table 9, further testing) | Ki (Adenosine A2b receptor) | Ki (Adenosine A1 receptor)
1 | Nc1nc(-c2cccc(F)c2)ncc1C(=O)NCc1ccccc1 [Example 4, 4-Amino-N-benzyl-2-(3-fluorophenyl)pyrimidine-5-carboxamide] | 74 nM | 75 nM | 1210 nM | –
2 | Nc1nc(-c2cccc(F)c2)ncc1C(=O)NCCc1ccccc1 [Example 4.1, 4-Amino-2-(3-fluorophenyl)-N-(2-phenylethyl)pyrimidine-5-carboxamide] | 141 nM | 142 nM | 1730 nM | –
3 | Nc1nc(-c2cccc(F)c2)ncc1C(=O)Nc1ccccc1 [Example 4.2, 4-Amino-2-(3-fluorophenyl)-N-phenyl-pyrimidine-5-carboxamide] | 112 nM | 112 nM | 8060 nM | –
4 | C[C@@H](NC(=O)c1cnc(-c2cccc(F)c2)nc1N)c1ccccc1 [Example 5, 4-Amino-2-(3-fluorophenyl)-N-[(1R)-1-phenylethyl]pyrimidine-5-carboxamide] | 329 nM | 329 nM | – | –
5 | Nc1nc(-c2cccc(F)c2)ncc1C(=O)NCc1ccccc1F [Example 5.1, 4-Amino-2-(3-fluorophenyl)-N-[(2-fluorophenyl)methyl]pyrimidine-5-carboxamide] | 90 nM | 90 nM | 172 nM | –
6 | Nc1nc(-c2cccc(F)c2)ncc1C(=O)NCc1c(F)cccc1F [Example 5.4, 4-Amino-N-[(2,6-difluorophenyl)methyl]-2-(3-fluorophenyl)pyrimidine-5-carboxamide] | 50 nM | 50 nM | 138 nM | –
7 | Nc1nc(-c2cccc(F)c2)ncc1C(=O)NCc1ncccn1 [Example 5.5, 4-Amino-2-(3-fluorophenyl)-N-(pyrimidin-2-ylmethyl)pyrimidine-5-carboxamide] | 278 nM | 278 nM | – | –
8 | Nc1nc(-c2cccc(F)c2)ncc1C(=O)NCc1ncccc1C(F)(F)F [Example 5.6, 4-Amino-2-(3-fluorophenyl)-N-[[3-(trifluoromethyl)-2-pyridyl]methyl]pyrimidine-5-carboxamide] | 29 nM | 29 nM | 622 nM | –
9 | Nc1nc(-c2cccc(F)c2)ncc1C(=O)NCCc1ccc(O)cc1 [Example 5.7, 4-Amino-2-(3-fluorophenyl)-N-[2-(4-hydroxyphenyl)ethyl]pyrimidine-5-carboxamide] | 505 nM | 505 nM | 3260 nM | –
10 | COc1ccc(CNC(=O)c2cnc(-c3ccco3)nc2N)cc1 [Example 5.11, 4-Amino-2-(2-furyl)-N-[(4-methoxyphenyl)methyl]pyrimidine-5-carboxamide] | 495 nM | 495 nM | – | –
11 | Nc1nc(-c2ccco2)ncc1C(=O)NCc1ccc(Cl)cc1Cl [Example 5.19, 4-Amino-N-[(2,4-dichlorophenyl)methyl]-2-(2-furyl)pyrimidine-5-carboxamide] | 15 nM | 15 nM | – | –
12 | CN(Cc1ccccc1)C(=O)c1cnc(-c2ccco2)nc1N [Example 5.22] | 871 nM | 871 nM | – | 4240 nM
13 | CC(C)n1ncnc1CNC(=O)c1cnc(-c2ccco2)nc1N [Example 5.27, 4-Amino-2-(2-furyl)-N-[(2-isopropyl-1,2,4-triazol-3-yl)methyl]pyrimidine-5-carboxamide] | 17 nM | 17 nM | – | 2680 nM
14 | Nc1nc(-c2ccco2)ncc1C(=O)N[C@H]1CCc2ccc(F)cc21 [Example 5.42, 4-Amino-N-[(1S)-6-fluoroindan-1-yl]-2-(2-furyl)pyrimidine-5-carboxamide] | – | 53 nM | – | –
15 | Nc1nc(-c2ccco2)ncc1C(=O)NCc1ncco1 [Example 5.45, 4-Amino-2-(2-furyl)-N-(oxazol-2-ylmethyl)pyrimidine-5-carboxamide] | – | 123 nM | – | –
16 | Nc1nc(-c2ccco2)ncc1C(=O)NCc1ccc2cnccc2c1 [Example 5.47, 4-Amino-2-(2-furyl)-N-(6-isoquinolylmethyl) pyrimidine-5-carboxamide] | – | 230 nM | – | 4770 nM
17 | Nc1nc(-c2ccco2)ncc1C(=O)NC1CCCc2cccnc21 (centres unmarked) [Example 5.49, 4-Amino-2-(2-furyl)-N-(5,6,7,8-tetrahydroquinolin-8-yl)pyrimidine-5-carboxamide] | – | 159 nM | – | –
18 | Nc1nc(-c2ccco2)ncc1C(=O)NCc1ccccc1C(F)(F)F [Example 5.55, 4-Amino-2-(2-furyl)-N-[[2-(trifluoromethyl)phenyl]methyl]pyrimidine-5-carboxamide] | – | 21 nM | – | –
19 | NC(=O)c1nnc(-c2cccc(F)c2)nc1N [Example 6, 5-Amino-3-(3-fluorophenyl)-1,2,4-triazine-6-carboxamide] | 556 nM | 556 nM | – | –
20 | Cc1cccnc1CNC(=O)c1cnc(-c2ccccc2F)nc1N [Example 9, 4-Amino-2-(2-fluorophenyl)-N-[(3-methyl-2-pyridyl)methyl]pyrimidine-5-carboxamide] | 312 nM | 312 nM | – | –
21 | Cc1ccc(CNC(=O)c2cnc(-c3ccco3)nc2N)cc1 [Example 11.1, 4-Amino-2-(2-furyl)-N-(p-tolylmethyl)pyrimidine-5-carboxamide] | 31 nM | 31 nM | – | 2380 nM
22 | Cc1cccnc1CNC(=O)c1cnc(-n2cccn2)nc1N [Example 15, 4-Amino-N-[(3-methyl-2-pyridyl)methyl]-2-pyrazol-1-yl-pyrimidine-5-carboxamide] | 265 nM | 265 nM | – | –
23 | Cc1cccnc1CNC(=O)c1cnc(-c2ncco2)nc1N [Example 16, 4-Amino-N-[(3-methyl-2-pyridyl)methyl]-2-oxazol-2-yl-pyrimidine-5-carboxamide] | 34 nM | 34 nM | – | 5650 nM
24 | CC(=O)NCCNc1nc(-c2ccco2)nc(N)c1C(=O)NCc1ncccc1C [Example 22, 4-(2-Acetamidoethylamino)-6-amino-2-(2-furyl)-N-[(3-methyl-2-pyridyl)methyl]pyrimidine-5-carboxamide] | – | 6.8 nM | – | 598 nM
25 | Cc1cccnc1CNC(=O)c1c(N)nc(-c2ccco2)nc1OCCC1CCCCN1 (centres unmarked) [Example 23, 4-Amino-2-(2-furyl)-N-[(3-methyl-2-pyridyl)methyl]-6-[2-(2-piperidyl)ethoxy]pyrimidine-5-carboxamide] | – | 864 nM | – | 8530 nM
26 | CC(C)NC(=O)c1c(N)nc(-c2cccc(C#N)c2)nc1OCCF [Example 24, 4-Amino-2-(3-cyanophenyl)-6-(2-fluoroethoxy)-N-isopropyl-pyrimidine-5-carboxamide] | – | 3.3 nM | – | –
27 | CCCNC(=O)c1c(N)nc(-c2cccc(C#N)c2)nc1OCCF [Example 24.1, 4-Amino-2-(3-cyanophenyl)-6-(2-fluoroethoxy)-N-propyl-pyrimidine-5-carboxamide] | – | 5.7 nM | – | –
28 | CC(C)CNC(=O)c1c(N)nc(-c2cccc(C#N)c2)nc1OCCF [Example 24.2, 4-Amino-2-(3-cyanophenyl)-6-(2-fluoroethoxy)-N-isobutyl-pyrimidine-5-carboxamide] | – | 2 nM | – | –
29 | CCCCNC(=O)c1c(N)nc(-c2cccc(C#N)c2)nc1OCCF [Example 24.3, 4-Amino-N-butyl-2-(3-cyanophenyl)-6-(2-fluoroethoxy)pyrimidine-5-carboxamide] | – | 0.9 nM | – | –
30 | CN(C)CCNC(=O)c1c(N)nc(-c2cccc(C#N)c2)nc1OCCF [Example 24.5, 4-Amino-2-(3-cyanophenyl)-N-[2-(dimethylamino)ethyl]-6-(2-fluoroethoxy)pyrimidine-5-carboxamide] | – | 29 nM | – | –
